From patent US20250375440A1, “COMPOSITION AND METHOD OF TREATING CANCER ASSOCIATED WITH EGFR MUTATION” (BEYONDSPRING PHARMACEUTICALS, INC., priority 2018, published 2025)

Test system: NCI-H1975 Human Lung Cancer Xenograft
Assay: subcutaneous NCI-H1975 Human Lung Cancer Xenograft Model in Balb/c Nude Mice, tumor size
Format: in vivo, Mus Musculus (Balb/c nude mice)
Conditions: single agent
Experimental: The therapeutic efficacy of Osimertinib and Plinabulin were tested in vivo. The two drugs were tested as a single agent and in combination in the treatment of subcutaneous NCI-H1975 Human Lung Cancer Xenograft Model in Balb/c Nude Mice. The administration of the test articles and the animal numbers in each study group were shown in the following experimental design table 1. [table] Study endpoints: The major endpoints of the study include the followings: Tumor growth inhibition (TGI): TGI % was an indication of antitumor effectiveness, and expressed as: TGI (%)=100×(1-T/C). T and C were the mean tumor volume (or weight) of the treated and control groups, respectively, on a given day. The test uses 6-8 weeks female mice (species: Mus Musculus, Strain: Balb/c nude). The average body weight of the mice was 18-22 g. A total of 84 mice (60 plus 40% spare) were used. The animals were housed in individual ventilated cages (up to 5 mice per cage) under the following conditions: Temperature: 20˜26° C.; Humidity: 40-70%; Light cycle: 7:00 am-19:00 pm light and 19:00 pm-7:00 am (next day) darkness; Polysulfone IVC cage: size of 325 mm×210 mm×180 mm; Bedding material: corn cob; Diet: Mouse diet, Co60 irradiation sterilized dry granule food. Animals have free access during the entire study period; Water: Reverse osmosis (RO) water, autoclaved before using. […] The cells growing in an exponential growth phase were harvested and counted for tumor inoculation. […] Group assignment: Before grouping and treatment, all animals were weighed and the tumor volumes were measured using a caliper. […] During routine monitoring, the animals were checked for any effects of tumor growth and treatments on normal behavior such as mobility, visual estimation of food and water consumption, body weight gain/loss (body weights were measured twice per week), eye/hair matting and any other abnormal effect. […]

SMILES	tumor size change after tumor inoculation (Group 3, plinabulin 7.5 mg/kg i.p. BIW 2 wks)	tumor size change after tumor inoculation (Group 4, plinabulin 2.5 mg/kg i.p. BIW 2 wks)	tumor size change after tumor inoculation (Group 2, osimertinib 2.5 mg/kg p.o. QD x 5/wk)
CC(C)(C)c1[nH]cnc1/C=c1\[nH]c(=O)/c(=C/c2ccccc2)[nH]c1=O [plinabulin, (3Z,6Z)-3-Benzylidene-6-{[5-(2-methyl-2-propanyl)-1H-imidazol-4-yl]methylene}-2,5-piperazinedione]	tumor size increases	tumor size increases	
C=CC(=O)Nc1cc(Nc2nccc(-c3cn(C)c4ccccc34)n2)c(OC)cc1N(C)CCN(C)C [osimertinib, reference compound]			control over the tumor size and slight increase in tumor size after the animals were tested for 15 days
